Experimental data taken from article PMC4503722, “Novel Phenotypic Outcomes Identified for a Public Collection of Approved Drugs from a Publicly Accessible Panel of Assays” (PLoS ONE, 2015).
Like-named read-outs stand apart in the source and are kept apart here.

Columns and labels:
[1] = tested on: alkaline phosphatase (ALP) activity in C2C12 cells; format: cell-based; conditions: assay number 6; concentration response
HeLa cells = experiment: cells; format: cell-based
[2] = tested on: nuclear β-catenin in C2C12 cells; experiment: cells; format: cell-based; conditions: for WntCondMedia_bCatenin C2C12 IC50/EC50: assay number 5, concentration response
INS-1E cells = experiment: cells; format: cell-based, rat;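 for 5mMGluc INS1E SecretionMod IC50/EC50: secreted insulin quantified by homogeneous immunoassay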;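 for IC50/EC50, 5mMGluc INS1E SecretionMod (assay number 8): secreted insulin quantified by homogeneous immunoassay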
NCI-H716 cells = experiment: cells; format: cell-based, Human; conditions: for IC50/EC50, hNCI-H716 GLP1 Secretion (assay number 12): concentration response
STC-1 cell line = format: cell-based, mouse; conditions: for IC50/EC50, mSTC-1 GLP1 Secretion (assay number 13): concentration response
[3] = tested on: ECFC/ADSC co-culture cell nuclei number
[4] = tested on: endothelial tube formation in co-cultures of ECFCs and ADSCs treated with VEGF; experiment: cells; format: cell-based, human
DLD-1 = experiment: cells; format: cell-based
hKDR = target: T1, hKDR (Homo sapiens, UniProt P35968); experiment: Cerep LANCE kinase assay hKDR (S1 assay 32); format: biochemical
T1 construct: purchased Cerep (LANCE kinase assay platform, contract assay)

Colo320 = experiment: cells; format: cell-based
HCT116 = experiment: cells; format: cell-based
hJAK2 = target: T2, hJAK2 (Homo sapiens, UniProt O60674); experiment: Cerep LANCE kinase assay hJAK2 (S1 assay 33); format: biochemical
T2 construct: purchased Cerep (LANCE kinase assay platform, contract assay)

HT-29 = experiment: cells; format: cell-based
SW480 = experiment: cells; format: cell-based
SNU-C1 = experiment: cells; format: cell-based
hGSK3b = target: T3, hGSK3b (Homo sapiens, UniProt P49841); experiment: Cerep LANCE kinase assay hGSK3b (S1 assay 34); format: biochemical
T3 construct: purchased Cerep (LANCE kinase assay platform, contract assay)

hp70S6K1 (RPS6KB1) = target: T4, hp70S6K1 (RPS6KB1) (Homo sapiens, UniProt P23443); experiment: Cerep LANCE kinase assay hp70S6K1 (S1 assay 31); format: biochemical
T4 construct: purchased Cerep (LANCE kinase assay platform, contract assay)

[5] = tested on: HCT116 cells treated with a GSK3β inhibitor; experiment: cells; format: cell-based
hFLT3 = target: T5, hFLT3 (Homo sapiens, UniProt P36888); experiment: Cerep LANCE kinase assay hFLT3 (S1 assay 35); format: biochemical
T5 construct: purchased Cerep (LANCE kinase assay platform, contract assay)

RKO = experiment: cells; format: cell-based

T5 sequence (P36888 27-993): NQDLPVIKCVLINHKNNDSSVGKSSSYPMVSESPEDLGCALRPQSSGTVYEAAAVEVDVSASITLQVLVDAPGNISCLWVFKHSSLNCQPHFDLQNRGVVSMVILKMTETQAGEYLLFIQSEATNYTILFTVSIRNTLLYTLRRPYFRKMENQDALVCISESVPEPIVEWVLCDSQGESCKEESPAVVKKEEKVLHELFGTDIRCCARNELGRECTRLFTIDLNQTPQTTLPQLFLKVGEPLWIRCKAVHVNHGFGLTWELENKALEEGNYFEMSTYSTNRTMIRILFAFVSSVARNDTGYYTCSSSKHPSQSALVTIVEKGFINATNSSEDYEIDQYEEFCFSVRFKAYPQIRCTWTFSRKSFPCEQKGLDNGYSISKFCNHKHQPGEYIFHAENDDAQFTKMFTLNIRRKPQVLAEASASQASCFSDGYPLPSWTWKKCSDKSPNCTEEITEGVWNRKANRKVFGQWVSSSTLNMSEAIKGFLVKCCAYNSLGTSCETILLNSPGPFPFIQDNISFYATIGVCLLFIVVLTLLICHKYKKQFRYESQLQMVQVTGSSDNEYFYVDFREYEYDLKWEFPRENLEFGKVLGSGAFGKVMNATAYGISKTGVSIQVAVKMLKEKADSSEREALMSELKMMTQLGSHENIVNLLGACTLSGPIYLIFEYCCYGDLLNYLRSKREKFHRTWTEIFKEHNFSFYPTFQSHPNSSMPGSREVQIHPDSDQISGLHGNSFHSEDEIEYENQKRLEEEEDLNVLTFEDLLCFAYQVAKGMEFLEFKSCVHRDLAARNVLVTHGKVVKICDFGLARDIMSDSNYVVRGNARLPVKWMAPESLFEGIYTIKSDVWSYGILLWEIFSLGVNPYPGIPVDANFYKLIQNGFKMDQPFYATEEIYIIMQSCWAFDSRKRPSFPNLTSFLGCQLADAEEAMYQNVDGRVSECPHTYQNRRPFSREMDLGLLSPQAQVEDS
T4 sequence (P23443 whole entry): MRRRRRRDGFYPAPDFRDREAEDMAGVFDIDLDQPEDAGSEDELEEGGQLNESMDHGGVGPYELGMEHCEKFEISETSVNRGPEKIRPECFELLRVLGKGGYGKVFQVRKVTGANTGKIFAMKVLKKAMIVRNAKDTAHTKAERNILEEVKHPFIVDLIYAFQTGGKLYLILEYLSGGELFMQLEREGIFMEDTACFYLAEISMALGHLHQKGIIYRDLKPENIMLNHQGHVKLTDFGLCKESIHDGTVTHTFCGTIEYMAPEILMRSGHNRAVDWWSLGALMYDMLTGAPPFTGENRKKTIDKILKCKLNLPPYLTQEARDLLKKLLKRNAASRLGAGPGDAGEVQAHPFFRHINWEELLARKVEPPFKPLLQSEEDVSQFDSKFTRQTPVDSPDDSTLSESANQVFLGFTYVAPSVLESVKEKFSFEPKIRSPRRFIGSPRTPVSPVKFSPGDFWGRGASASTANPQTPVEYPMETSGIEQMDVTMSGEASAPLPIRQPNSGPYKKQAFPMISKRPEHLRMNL
T2 sequence (O60674 whole entry): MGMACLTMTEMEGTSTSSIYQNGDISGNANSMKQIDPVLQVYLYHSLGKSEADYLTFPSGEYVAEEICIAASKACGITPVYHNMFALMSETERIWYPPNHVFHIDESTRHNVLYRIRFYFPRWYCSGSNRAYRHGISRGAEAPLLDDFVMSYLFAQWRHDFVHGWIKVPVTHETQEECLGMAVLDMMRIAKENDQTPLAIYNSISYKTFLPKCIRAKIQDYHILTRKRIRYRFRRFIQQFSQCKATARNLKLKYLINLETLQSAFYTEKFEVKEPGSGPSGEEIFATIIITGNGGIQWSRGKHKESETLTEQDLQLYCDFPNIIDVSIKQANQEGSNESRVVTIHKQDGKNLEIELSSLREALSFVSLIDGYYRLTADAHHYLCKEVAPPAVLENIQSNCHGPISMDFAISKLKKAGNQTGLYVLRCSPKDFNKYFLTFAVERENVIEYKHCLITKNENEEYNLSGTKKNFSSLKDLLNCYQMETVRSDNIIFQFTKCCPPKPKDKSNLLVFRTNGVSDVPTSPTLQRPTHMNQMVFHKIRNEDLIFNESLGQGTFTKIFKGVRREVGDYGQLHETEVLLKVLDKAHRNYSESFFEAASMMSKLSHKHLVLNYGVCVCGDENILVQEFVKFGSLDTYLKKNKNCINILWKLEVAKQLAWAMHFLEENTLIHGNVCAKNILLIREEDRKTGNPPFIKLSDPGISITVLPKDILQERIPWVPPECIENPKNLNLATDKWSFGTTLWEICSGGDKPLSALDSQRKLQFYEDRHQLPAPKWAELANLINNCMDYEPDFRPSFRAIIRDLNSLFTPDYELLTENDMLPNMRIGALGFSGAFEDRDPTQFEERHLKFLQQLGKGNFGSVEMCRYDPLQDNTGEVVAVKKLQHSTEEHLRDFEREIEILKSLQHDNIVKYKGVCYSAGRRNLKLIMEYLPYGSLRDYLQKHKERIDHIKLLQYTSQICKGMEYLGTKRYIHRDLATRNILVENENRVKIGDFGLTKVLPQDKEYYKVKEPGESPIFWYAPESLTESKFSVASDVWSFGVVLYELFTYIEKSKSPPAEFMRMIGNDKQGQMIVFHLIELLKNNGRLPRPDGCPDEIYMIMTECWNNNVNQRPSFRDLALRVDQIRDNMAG
T1 sequence (P35968 20-1356): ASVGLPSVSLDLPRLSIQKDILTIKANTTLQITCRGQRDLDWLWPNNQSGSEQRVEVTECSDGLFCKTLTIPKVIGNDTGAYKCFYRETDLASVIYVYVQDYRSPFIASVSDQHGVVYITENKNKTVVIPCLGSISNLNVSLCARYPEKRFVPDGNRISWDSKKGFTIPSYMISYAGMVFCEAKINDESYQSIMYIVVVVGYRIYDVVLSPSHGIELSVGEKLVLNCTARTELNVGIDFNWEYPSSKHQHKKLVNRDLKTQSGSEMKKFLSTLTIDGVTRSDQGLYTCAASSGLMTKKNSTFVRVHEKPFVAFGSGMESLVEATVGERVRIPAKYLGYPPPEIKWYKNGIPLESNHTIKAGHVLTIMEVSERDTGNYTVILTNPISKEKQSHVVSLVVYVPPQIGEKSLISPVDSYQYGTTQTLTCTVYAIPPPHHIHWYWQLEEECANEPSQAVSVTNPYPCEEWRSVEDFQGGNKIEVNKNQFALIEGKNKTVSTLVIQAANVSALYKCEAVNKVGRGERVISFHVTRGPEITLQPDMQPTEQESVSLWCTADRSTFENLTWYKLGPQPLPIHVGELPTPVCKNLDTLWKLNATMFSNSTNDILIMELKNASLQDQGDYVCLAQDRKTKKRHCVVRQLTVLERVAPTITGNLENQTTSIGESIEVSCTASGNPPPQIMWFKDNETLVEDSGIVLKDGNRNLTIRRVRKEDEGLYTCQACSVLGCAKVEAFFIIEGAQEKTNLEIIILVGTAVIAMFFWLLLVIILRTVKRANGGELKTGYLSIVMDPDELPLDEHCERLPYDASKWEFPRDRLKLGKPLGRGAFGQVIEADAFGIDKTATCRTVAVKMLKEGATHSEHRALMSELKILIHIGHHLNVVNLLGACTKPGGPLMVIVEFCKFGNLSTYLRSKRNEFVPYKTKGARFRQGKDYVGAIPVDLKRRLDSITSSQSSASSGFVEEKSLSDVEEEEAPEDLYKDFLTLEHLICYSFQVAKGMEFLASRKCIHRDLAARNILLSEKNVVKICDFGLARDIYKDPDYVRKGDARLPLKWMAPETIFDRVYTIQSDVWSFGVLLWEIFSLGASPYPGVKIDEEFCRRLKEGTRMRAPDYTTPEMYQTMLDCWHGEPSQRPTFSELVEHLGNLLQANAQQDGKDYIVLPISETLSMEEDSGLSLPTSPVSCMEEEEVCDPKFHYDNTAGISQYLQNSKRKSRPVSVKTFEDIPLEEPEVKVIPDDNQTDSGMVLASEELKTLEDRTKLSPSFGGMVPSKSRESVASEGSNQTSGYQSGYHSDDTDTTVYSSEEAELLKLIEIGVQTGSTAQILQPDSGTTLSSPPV
T3 sequence (P49841 whole entry): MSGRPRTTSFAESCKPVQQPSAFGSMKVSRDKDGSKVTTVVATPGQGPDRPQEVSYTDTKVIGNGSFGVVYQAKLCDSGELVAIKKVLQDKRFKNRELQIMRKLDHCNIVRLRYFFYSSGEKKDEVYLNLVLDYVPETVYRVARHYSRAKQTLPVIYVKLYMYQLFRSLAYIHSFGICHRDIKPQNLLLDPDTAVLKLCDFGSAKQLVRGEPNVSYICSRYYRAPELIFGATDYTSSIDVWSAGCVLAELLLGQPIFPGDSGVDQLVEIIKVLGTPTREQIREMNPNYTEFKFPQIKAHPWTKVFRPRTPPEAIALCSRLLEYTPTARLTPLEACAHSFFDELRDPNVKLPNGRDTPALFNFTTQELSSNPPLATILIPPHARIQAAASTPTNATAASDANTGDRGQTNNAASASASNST

Row | SMILES | 5mMGluc_INS1E SecretionMod IC50/EC50 (INS-1E cells; assay number 8, 5 mM glucose) [µM] | hNCI-H716 GLP1 Secretion IC50/EC50 (NCI-H716 cells; assay number 12) [µM] | mSTC-1 GLP1 Secretion IC50/EC50 (STC-1 cell line; assay number 13) [µM] | VEGF_ADSC\ECFC Angio Hoechst NucArea IC50/EC50 [3] [µM] | VEGF_ADSC\ECFC Angio CD31 TubeArea IC50/EC50 [4] [µM] | further results
1 | Cc1cc(CC(C)CC(C)(C)C)n(O)c(=O)c1 (centres unmarked) [NCGC00167586-03] |  |  |  |  |  | WntCondMedia_Alk Phos C2C12 IC50/EC50 [1]: > 20 µM; Hela CellCycMod PI 2N IC50/EC50 (HeLa cells; assay number 14, 2N): > 10 µM; Hela CellCycMod PI S Phase IC50/EC50 (HeLa cells; assay number 15, S phase): > 10 µM; Hela CellCycMod PI 4N IC50/EC50 (HeLa cells; assay number 16, 4N): > 10 µM; Hela CellCycMod PI MI IC50/EC50 (HeLa cells; assay number 17, MI): > 10 µM; Hela CellCycMod PI Cell Number IC50/EC50 (HeLa cells; assay number 18, cell number): 0.1332 µM; WntCondMedia_bCatenin C2C12 IC50/EC50 [2]: 0.5913 µM
2 | O=C1Nc2ccc(Cl)cc2[C@@](C#CC2CC2)(C(F)(F)F)O1 [NCGC00159337-04] | 3.8674 | 21.246 | 2.476 |  |  | 
3 | Cc1ccc(O)cc1 [NCGC00091519-09] | > 33.33 | > 40 | > 40 | > 10 | > 10 | 
4 | Cc1ccc([N+](=O)[O-])[c]2c1[O][Hg]2 [nitromersol, reference compound] |  |  |  |  |  | IC50 (DLD-1; basal, read-out: Basal_Viability ATP DLD-1): 1.62 µM; IC50 (hKDR; read-out: KDR): 16.8 µM; IC50 (Colo320; basal, read-out: Basal_Viability ATP Colo 320): 0.935 µM; IC50 (HCT116; basal, read-out: Basal_Viability ATP HCT116): 2.83 µM; EC50 (INS-1E cells; IC50 / EC50, INS-1E, read-out: Insulin Secretion): > 20 µM; activity in NCI-H716 GLP-1 secretion assay (in words) (NCI-H716 cells): potent actives; EC50 (NCI-H716 cells; IC50 / EC50, NCI-H716, read-out: GLP 1 Secretion): 0.0972 µM; IC50 ([4]; IC50 / EC50, endothelial tube area, ADSC/ECFC co-culture, read-out: Anti-Angiogenesis): 0.668 µM; activity in STC-1 GLP-1 secretion assay (in words) (STC-1 cell line): potent actives; IC50 (hJAK2; read-out: JAK2): > 20 µM; IC50 (HT-29; basal, read-out: Basal_Viability ATP HT-29): 1.44 µM; IC50 (SW480; basal, read-out: Basal_Viability ATP SW480): 1.13 µM; IC50 (SNU-C1; basal, read-out: Basal_Viability ATP SNU-C1): 0.202 µM; IC50 (hGSK3b; read-out: GSK3b): 8.37 µM; EC50 (HeLa cells; IC50 / EC50, HeLa, read-out: CellCycle G2/M): > 10 µM; IC50 (hp70S6K1 (RPS6KB1); read-out: p70S6K1): > 20 µM; IC50 ([5]; GSK3b inhibitor pretreated, read-out: GSK3b inh pretreated_Viability ATP HCT116): > 20 µM; IC50 (hFLT3; read-out: FLT3): 10.4 µM; EC50 ([2]; IC50 / EC50, C2C12 beta-catenin translocation, read-out: Wnt Pathway): 0.155 µM
5 | Cc1cc(O)c2c(O)c3c(O)cccc3cc2c1 [NCGC00181774-02] |  |  |  |  |  | IC50/EC50, VEGF_ADSC\ECFC Angio Hoechst NucArea (assay number 3) [3]: > 10 µM; IC50/EC50, 5mMGluc_INS1E SecretionMod (assay number 8) (INS-1E cells; 5 mM glucose): > 33.33 µM; IC50/EC50, hNCI-H716 GLP1 Secretion (assay number 12) (NCI-H716 cells): > 20 µM; IC50/EC50, VEGF_ADSC\ECFC Angio CD31 TubeArea (assay number 2) [4]: > 10 µM; IC50/EC50, mSTC-1 GLP1 Secretion (assay number 13) (STC-1 cell line): 11.3101 µM
6 | CN1CCCC(CC2c3ccccc3Sc3ccccc32)C1.Cl (centres unmarked) [NCGC00273481-01] |  |  |  | > 10 | 8.6842 | Basal_Viability ATP DLD-1 IC50/EC50 (DLD-1): > 20 µM; Basal_Viability ATP Colo 320 IC50/EC50 (Colo320): > 20 µM; Basal_Viability ATP HCT116 IC50/EC50 (HCT116): > 20 µM; 5mMGluc_INS1E SecretionMod IC50/EC50 (INS-1E cells): > 11.11 µM; hNCI-H716 GLP1 Secretion IC50/EC50 (NCI-H716 cells): > 40 µM; mSTC-1 GLP1 Secretion IC50/EC50 (STC-1 cell line): > 40 µM; Basal_Viability ATP HT-29 IC50/EC50 (HT-29): 6.4328 µM; Basal_Viability ATP SW480 IC50/EC50 (SW480): 4.7038 µM; Basal_Viability ATP SNU-C1 IC50/EC50 (SNU-C1): 15.0863 µM; Hela CellCycMod PI 2N IC50/EC50 (HeLa cells): > 10 µM; Hela CellCycMod PI 4N IC50/EC50 (HeLa cells): > 10 µM; Hela CellCycMod PI Cell Number IC50/EC50 (HeLa cells): > 10 µM; Hela CellCycMod PI MI IC50/EC50 (HeLa cells): > 10 µM; Basal_Viability ATP RKO IC50/EC50 (RKO): 3.4891 µM; GSK3b inh pretreated_Viability ATP HCT116 IC50/EC50 [5]: 8.6816 µM
7 | CC(C)CCCC(C)NCCC(C)C (centres unmarked) [NCGC00261980-01] | > 33.33 | > 40 | > 40 | > 10 | > 10 | 
8 | CC(C)(C)CC(C)(C)c1ccc(O)c(Cc2ccc(Cl)cc2Cl)c1 [NCGC00095016-05] | > 33.33 | 9.073 | 0.5436 |  |  | 
9 | O.O.O.O.O=C1OC2(c3cc(Br)c([O-])cc3Oc3c2cc(Br)c([O-])[c]3[Hg])c2ccccc21.[Na+].[Na+] (centres unmarked) [NCGC00262588-02] |  |  |  |  |  | WntCondMedia_Alk Phos C2C12 IC50/EC50 [1]: > 20 µM; WntCondMedia_bCatenin C2C12 IC50/EC50 [2]: 16.8578 µM
10 | FC(F)(F)C(F)(F)C(F)(F)C(F)(F)C(F)(F)C(F)(F)C(F)(F)C(F)(F)Br [NCGC00166217-02] | > 33.33 | > 40 | > 40 |  |  | 
11 | C/C(=C(\CCOC(=O)C(C)C)SS/C(CCOC(=O)C(C)C)=C(/C)N(C=O)Cc1cnc(C)nc1N)N(C=O)Cc1cnc(C)nc1N [NCGC00167456-02] | > 33.33 | 2.3879 | > 40 |  |  | 
12 | CCCCCN=C(N)N/N=C/c1c[nH]c2ccc(OC)cc12 [NCGC00095192-05] | 16.8442 | 10.8586 | > 40 | 7.175 | 3.1318 | 
13 | Cc1c(N)cccc1C(F)(F)F [NCGC00253636-01] | > 33.33 | > 40 | > 40 | > 10 | > 10 | 
14 | O=C(CBr)Nc1ccc(Cl)cc1C(=O)c1ccccc1F [NCGC00253724-01] | > 33.33 | > 40 | > 40 | > 10 | > 10 | 
15 | CCCCCCCCCCCCCCCCCCNC(=O)OC1CCN(C(=O)OC[C@H](COC(=O)N(Cc2cccc[n+]2CC)C(=O)c2ccccc2OC)OC)CC1.[Cl-] [NCGC00183020-01] | 21.7337 | 9.522 | 13.8183 | > 10 | 1.4957 | hKDR LANCE IC50/EC50 (hKDR; assay number 32): > 20 µM; hJAK2 LANCE IC50/EC50 (hJAK2; assay number 33): > 20 µM; hGSK3b LANCE IC50/EC50 (hGSK3b; assay number 34): > 20 µM; Hela CellCycMod PI 2N IC50/EC50 (HeLa cells; assay number 14, 2N): > 10 µM; Hela CellCycMod PI 4N IC50/EC50 (HeLa cells; assay number 16, 4N): > 10 µM; Hela CellCycMod PI MI IC50/EC50 (HeLa cells; assay number 17, MI): > 10 µM; Hela CellCycMod PI Cell Number IC50/EC50 (HeLa cells; assay number 18, cell number): 6.1389 µM; hp70S6K1 LANCE IC50/EC50 (hp70S6K1 (RPS6KB1); assay number 31): > 20 µM; hFLT3 LANCE IC50/EC50 (hFLT3; assay number 35): > 20 µM
16 | NC(=O)C1(N2CCCCC2)CCN(CCCN2c3ccccc3CCc3ccc(Cl)cc32)CC1 [NCGC00253595-01] | 10.0823 | 18.348 | > 40 | > 10 | 3.4001 | 
17 | CC(COc1ccccc1)NN (centres unmarked) [NCGC00183828-01] | > 33.33 | > 40 | 27.1817 | > 10 | > 10 | 
18 | Cn1cc([S+](C)[O-])c(=O)c2ccc(F)cc21 (centres unmarked) [NCGC00183849-01] | > 33.33 | > 40 | > 40 | > 10 | > 10 | 
19 | CCOC(=O)c1ccccc1O [NCGC00181161-03] |  |  |  |  |  | IC50/EC50, 5mMGluc_INS1E SecretionMod (assay number 8) (INS-1E cells; 5 mM glucose): > 33.33 µM; IC50/EC50, hNCI-H716 GLP1 Secretion (assay number 12) (NCI-H716 cells): > 40 µM; IC50/EC50, mSTC-1 GLP1 Secretion (assay number 13) (STC-1 cell line): > 40 µM
20 | CCCCCCCCCCCCCCC[C@H](O)[C@@H](N)CO [NCGC00015362-05] |  |  |  |  |  | WntCondMedia_Alk Phos C2C12 IC50/EC50 [1]: > 20 µM; WntCondMedia_bCatenin C2C12 IC50/EC50 [2]: > 20 µM
21 | Cc1cc(OI)c(C(C)C)cc1-c1cc(C(C)C)c(OI)cc1C [NCGC00159504-04] |  |  |  |  |  | IC50/EC50, VEGF_ADSC\ECFC Angio Hoechst NucArea (assay number 3) [3]: > 10 µM; IC50/EC50, 5mMGluc_INS1E SecretionMod (assay number 8) (INS-1E cells; 5 mM glucose): > 33.33 µM; IC50/EC50, hNCI-H716 GLP1 Secretion (assay number 12) (NCI-H716 cells): > 40 µM; IC50/EC50, VEGF_ADSC\ECFC Angio CD31 TubeArea (assay number 2) [4]: > 10 µM; IC50/EC50, mSTC-1 GLP1 Secretion (assay number 13) (STC-1 cell line): 15.1081 µM
22 | COC(=O)C(Cl)C(=O)OC [NCGC00249607-02] | > 33.33 | > 40 | 8.3651 | > 10 | > 10 | 
23 | Fc1cc(Br)ccc1CBr [NCGC00253679-01] | > 33.33 | > 40 | > 40 |  |  | 
